pIC50, pKd: −log10 of the molar value.
How the values were obtained:
MV-4-11 cells = test: Assay of inhibiting proliferation of MV-4-11 in vitro (CellTiter-Glo, 3 days); assay type: cell-based, human; conditions: MV-4-11 cell proliferation
Method: IMDM medium, fetal bovine serum, and penicillin/streptomycin antibiotics were purchased from Promega (Madison, Wis.). The MV-4-11 cell line was purchased from the Cell Bank of the Chinese Academy of Sciences. Envision Multi-Label Analyzer (PerkinElmer).
MV-4-11 cells were seeded in a white 96-well plate with 80 μL of cell suspension per well containing 10,000 MV-4-11 cells. The cell plate was cultured overnight in a carbon dioxide incubator.
The compounds to be tested were 5-fold serially diluted with a pipette to obtain eight concentrations, i.e., from 2 mmol/L to 26 nmol/L. The assay was carried out in duplicate. 78 μL of medium was added to the intermediate plate, and then 2 μL per well of the serially diluted compounds were transferred to the intermediate plate according to the corresponding position. After mixing, an amount of 20 μL per well was transferred to the cell plate. The cell plate was cultured in a carbon dioxide incubator for 3 days.
25 μL per well of Promega CellTiter-Glo reagent was added to the cell plate and incubated at room temperature for 10 minutes to stabilize the luminescence signal. A PerkinElmer Envision multi-label analyzer was used for reading.
The original data was converted into an inhibition rate, and the IC50 value can be obtained by four-parameter curve fitting.

FLT3(ITD) = molecular target: T1, FLT3(ITD) (Homo sapiens, UniProt P36888); assay type: binding
T1 construct: fused on or other part: DNA tag for the qPCR read-out (the KINOMEscan format)
T1 sequence (P36888 1-993): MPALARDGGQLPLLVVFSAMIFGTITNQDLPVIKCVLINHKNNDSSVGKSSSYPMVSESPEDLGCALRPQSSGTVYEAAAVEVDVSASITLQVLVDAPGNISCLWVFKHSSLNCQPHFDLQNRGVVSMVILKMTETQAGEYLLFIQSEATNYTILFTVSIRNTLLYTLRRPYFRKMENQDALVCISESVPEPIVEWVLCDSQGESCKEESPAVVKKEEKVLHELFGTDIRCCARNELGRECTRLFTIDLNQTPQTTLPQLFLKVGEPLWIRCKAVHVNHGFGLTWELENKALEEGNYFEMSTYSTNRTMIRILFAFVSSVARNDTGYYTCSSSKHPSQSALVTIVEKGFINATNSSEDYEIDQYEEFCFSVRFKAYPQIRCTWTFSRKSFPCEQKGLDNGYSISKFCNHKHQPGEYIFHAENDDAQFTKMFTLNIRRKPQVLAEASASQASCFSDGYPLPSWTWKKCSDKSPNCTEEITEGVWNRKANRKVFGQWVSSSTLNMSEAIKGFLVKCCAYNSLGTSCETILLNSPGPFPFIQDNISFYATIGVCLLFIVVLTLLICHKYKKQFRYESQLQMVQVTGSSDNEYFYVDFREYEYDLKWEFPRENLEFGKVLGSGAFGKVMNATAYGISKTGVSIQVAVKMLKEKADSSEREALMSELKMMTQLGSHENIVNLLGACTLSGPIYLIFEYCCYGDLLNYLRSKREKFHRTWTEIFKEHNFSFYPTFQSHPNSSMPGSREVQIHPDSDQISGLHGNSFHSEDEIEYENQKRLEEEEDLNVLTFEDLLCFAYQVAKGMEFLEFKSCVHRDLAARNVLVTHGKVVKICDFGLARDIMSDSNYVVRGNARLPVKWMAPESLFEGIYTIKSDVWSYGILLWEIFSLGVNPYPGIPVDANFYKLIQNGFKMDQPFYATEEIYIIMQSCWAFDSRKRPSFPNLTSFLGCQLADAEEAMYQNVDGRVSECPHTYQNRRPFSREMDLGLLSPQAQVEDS

FLT3(D835Y) = molecular target: T2, FLT3(D835Y) (Homo sapiens, UniProt P36888, D835Y); assay type: binding
T2 sequence (P36888 27-993 D835Y): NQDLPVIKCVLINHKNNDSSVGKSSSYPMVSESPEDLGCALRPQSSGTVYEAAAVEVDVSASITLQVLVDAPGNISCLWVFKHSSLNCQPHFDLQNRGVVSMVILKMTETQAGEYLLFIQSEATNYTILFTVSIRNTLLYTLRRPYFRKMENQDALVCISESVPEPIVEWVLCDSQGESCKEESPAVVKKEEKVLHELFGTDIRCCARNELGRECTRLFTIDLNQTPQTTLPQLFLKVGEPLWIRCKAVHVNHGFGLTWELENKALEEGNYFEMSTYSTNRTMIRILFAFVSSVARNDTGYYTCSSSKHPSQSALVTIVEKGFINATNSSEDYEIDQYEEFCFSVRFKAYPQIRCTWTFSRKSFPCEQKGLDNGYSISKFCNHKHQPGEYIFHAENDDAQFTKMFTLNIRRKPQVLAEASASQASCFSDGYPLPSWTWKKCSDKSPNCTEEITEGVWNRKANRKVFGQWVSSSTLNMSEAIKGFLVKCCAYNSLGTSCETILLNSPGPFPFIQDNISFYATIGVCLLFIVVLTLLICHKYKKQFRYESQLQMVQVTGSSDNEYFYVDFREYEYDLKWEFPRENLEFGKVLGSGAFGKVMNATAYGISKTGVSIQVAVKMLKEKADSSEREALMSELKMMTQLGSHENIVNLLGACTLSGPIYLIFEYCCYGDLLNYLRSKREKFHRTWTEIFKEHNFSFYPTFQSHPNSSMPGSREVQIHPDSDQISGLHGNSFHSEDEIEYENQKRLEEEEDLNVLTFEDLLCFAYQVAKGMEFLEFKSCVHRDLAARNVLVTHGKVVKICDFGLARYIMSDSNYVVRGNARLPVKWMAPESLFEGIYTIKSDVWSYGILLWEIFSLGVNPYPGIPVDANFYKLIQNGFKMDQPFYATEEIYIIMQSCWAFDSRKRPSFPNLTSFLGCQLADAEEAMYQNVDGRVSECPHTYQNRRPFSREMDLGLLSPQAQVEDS

With `CCc1nc(C(N)=O)c(Nc2ccc(N3CCC4(CCN(C)CC4)CC3)c(C)c2)nc1NC1CCOCC1.O=C(O)C(F)(F)F` the pIC50 (MV-4-11 cells) was 8.52, the pKd (FLT3(ITD)) was 8.44 and the pKd (FLT3(D835Y)) was 8.85.

Source: patent publication US20230141887A1, “CRYSTAL FORM OF DIAZASPIROPYRAN COMPOUND” (MEDSHINE DISCOVERY INC., priority 2020, published 2023)
